“Also recorded” adds a separate entry of the source.
Key:
adrenal cortex = conditions: WHHL rabbits; cited from earlier work
MDR1 = target: T1, MDR1 (Homo sapiens, UniProt P08183); conditions: cited from earlier work
T1 construct: measured the accumulation of doxorubicin in H295R cells; endogenous in cells; host or cells: H295R adrenocortical carcinoma cells

H295R cells [1] = experiment: Cholesterol crystallization and extracellular cholesterol associated with cells; assay type: cell-based; conditions: compound in combination with ATR-101
Procedure: To quantify cholesterol crystallization, experiments were conducted that measured the total extracellular cholesterol that was associated with the cells. After culturing cells with the indicated compounds, the culture medium was removed. Medium lacking cholesterol was added to the cells, and the extracellular cholesterol that was released into the wash medium was collected after 30 seconds. To establish if the cholesterol that was released from the cells was exported by ABCA1, the wash step was performed in parallel using media with and without 50 μM glibenclamide, which inhibits ABCA1 activity. The total amount of cell-associated cholesterol that was released into the wash medium was measured using a fluorometric enzyme-linked assay (Cayman Chemical). Cholesterol esters were hydrolyzed using cholesterol esterase. Cholesterol was oxidized by cholesterol oxidase, producing hydrogen peroxide. The hydrogen peroxide was reacted with 10-acetyl-3,7-dihydroxyphenoxazine (ADHP) in the presence of horseradish peroxidase to produce resorufin. Resorufin fluorescence was measured using 555 nm exitation and 590 nm emission wavelengths in a SpectraMax M5 microplate reader (Molecular Devices).
The medium was removed and replaced with 50 μl serum-free medium supplemented with 5 μg/mL apo-AI (without or with 50 μM glyburide to detect ABCA1 transporter-dependent efflux) for either 30 sec or 1 h at 37 C in 5% CO2 atmosphere. After the indicated time, the supernatant, was transferred to a new 96-well plate and a fluorometric-base cholesterol detection assay cocktail was added.

H295R cells [2] = experiment: Cell morphology by phase contrast microscopy; assay type: cell-based; conditions: 30 h
Procedure: FIG. 4E: […] The cells were cultured with DMSO vehicle (upper images) or with 40 μM ATR-101 (lower images) alone (left images), or in combination with 1.5 mM MβCD (middle images), or in combination with 40 μM cholesterol (right images). Cell morphology was visualized by phase contrast microscopy using a 10× objective. The images are representative of 5 fields under each set of culture conditions. The scale bars denote 100 μm.

H295R cells [3] = experiment: Resazurin reducing potential; assay type: cell-based; conditions: 32 μM ATR-101 with 2 mM MβCD
Procedure: FIG. 4F: […] The cells were cultured with DMSO vehicle or 32 μM ATR-101 alone, or together with 2 mM MβCD. Resazurin fluorescence intensity was measured using a microplate reader at the indicated times at 37 C. The background signal of wells without resazurin was subtracted. […] DMSO control, *P<0.05).

H295R cells [4] = experiment: Cellular ATP level (CellTiter-Glo); conditions: for ATP level, compound alone: serum-containing medium;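 on all read-outs here: ATP quantified by luminescence after lysing the cells in CellTiter-Glo reagent, with compound exposure at 37 °C under 5% CO2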
Procedure: The ATP levels of cells were measured by lysis in CellTiter-Glo reagent (Promega), and measurement of the luminescence.
After 48 h, 20-80 μl of medium was removed from each well and replaced with 20 μl of each compound diluted to 6× of the final concentration in the culture medium to produce a final volume of 120 μl. The cells were incubated at 37 C in 5% CO2 atmosphere for a time ranging from 15 min to 24 h. The medium was removed and immediately replaced with 50 μl of CellTiter-Glo luminescence cell viability assay reagent (Promega). The cells were lysed by agitation at room temperature for 20 min in the dark. The luminescence was measured using a SpectraMax M5 microplate reader (Molecular Devices) with a 0.5 s acquisition time. The luminescence (RLU) values for control cells ranged from 5000 to 20000 RLU in all experiments, and were scaled by a factor of 0.001 to plot all graphs.

H295R cells [5] = experiment: Caspase 3/7 activity (Apo-ONE); assay type: cell-based; conditions: for caspase 3/7 activity, compound alone: serum-containing medium
Procedure: The samples were incubated for 18 h at room temperature in the dark. The fluorescence was measured using a SpectraMax M5 microplate reader with a 0.5 s acquisition time.

H295R cells [6] = experiment: Visualization of cholesterol levels by filipin III binding; assay type: cell-based
Procedure: The cells were seeded in 96-well ibiTreat μ-Plates and allowed to adhere for 48 h prior to the start of each experiment. Cholesterol was detected in fixed cells by incubating with 100 μg/ml filipin III at 37 C for 2 h. […] Images were captured using either a 4× or a 60× objective. Cholesterol esterification was visualized by culturing the cells with 1 μM NBD-cholesterol for 2 h following incubation with the indicated compounds. […] Images were captured using either a 20× or a 60× objective.
The medium was removed and immediately replaced with 100 μl of 4% paraformaldehyde and the cells were fixed at room temperature for 20 min. The cells were washed twice with 200 μl PBS. […] The fixed cells were incubated with filipin III at 37 C in the dark for 2 h.

[7] = H295R cells cultured with the compound together with ATR-101, 4 h
[8] = H295R cells cultured with the compound together with ATR-101, 24 h
[9] = H295R cells, serum-free, 50 μM each glibenclamide, benzamil, zosuquidar, 10 μM PD129337, 4 mM MβCD

Cc1ccc2oc(CN(Cc3ccccc3)C(=O)Nc3c(F)cc(F)cc3F)c(-c3ccc(Cl)cc3)c2c1 [FR145237]
adrenalytic effect in LDL deficient animals (adrenal cortex): resistant

O[C@@H](COc1cccc2ncccc12)CN1CCN([C@@H]2c3ccccc3[C@@H]3[C@H](c4ccccc42)C3(F)F)CC1 [zosuquidar]
MDR1 inhibition (MDR1): selectively inhibits MDR1

methyl-β-cyclodextrin [MβCD]
effect on cholesterol crystallization in cells cultured with ATR-101 (H295R cells [1]): did not produce crystals; also recorded: blocked
effect on the changes in cell morphology caused by ATR-101 (H295R cells [2]; 40 μM ATR-101 with 1.5 mM MβCD or 40 μM cholesterol): remained flat and adherent for at least 30 h; also recorded: prevented
cell morphology, compound alone (H295R cells [2]; phase contrast): little effect
effect on the increase in resazurin fluorescence caused by ATR-101 (H295R cells [3]): not inhibited
effect on ATP depletion by ATR-101 (H295R cells [4]; [7]): prevented ATP depletion; also recorded: suppressed the depletion of ATP
effect on ATP depletion by ATR-101 (H295R cells [4]; [8]): prevented ATP depletion
effect on ATP depletion by ATR-101 in combination with ABC transporter inhibitors, substrates or U18666A (H295R cells [4]; H295R cells, 2 mM MβCD): suppressed ATP depletion
ATP level, compound alone (H295R cells [4]; H295R cells, 4 h): little effect
ATP level, compound alone (H295R cells [4]; H295R cells, 24 h): little effect
effect on ATP depletion by ATR-101 (H295R cells [4]; H295R cells, serum-free medium containing apoA-I, together with ATR-101): suppressed ATP depletion
effect on caspase 3/7 activation by ATR-101 (H295R cells [5]; [7]): prevented ATP depletion and caspase activation; also recorded: suppressed
effect on caspase 3/7 activation by ATR-101 (H295R cells [5]; [8]): prevented ATP depletion and caspase activation
caspase 3/7 activity, compound alone (H295R cells [5]; H295R cells, 4 h): little effect
caspase 3/7 activity, compound alone (H295R cells [5]; H295R cells, 24 h): little effect
effect on caspase activation by ATR-101 (H295R cells [5]; H295R cells, serum-free medium, 100 μM ATR-101 with 4 mM MβCD): suppressed ATP depletion and caspase activation
caspase 3/7 activity with combinations of ABC transporter inhibitors (H295R cells [5]; [9]): suppressed
effect on cholesterol accumulation caused by ATR-101 (H295R cells [6]; H295R cells cultured with the compound together with ATR-101, 4 h or 24 h): prevented cholesterol accumulation; also recorded: blocked the effects of ATR-101 on cholesterol accumulation; also recorded: did not have a higher level of filipin III binding to the plasma membrane
cholesterol level (filipin III binding), compound alone (H295R cells [6]; H295R cells, serum-free medium containing apoA-I, 4 h): reduced the basal level of cholesterol
effect on cholesterol accumulation caused by ATR-101 (H295R cells [6]; H295R cells, serum-free medium, 100 μM ATR-101 with 4 mM MβCD, 4 h): suppressed the cholesterol accumulation
cholesterol level with combinations of ABC transporter inhibitors (H295R cells [6]; [9]): reduced the cholesterol level

Source: patent publication US10512667B2, “Compositions and methods for treating conditions related to adrenocortical activity and/or excessive steroid production” (The Regents of the University of Michigan, priority 2017, dated 2019)
